Laboratory results published in ChEMBL document CHEMBL3797106, “Potent and Selective Agonists of Sphingosine 1-Phosphate 1 (S1P1): Discovery and SAR of a Novel Isoxazole Based Series” (J Med Chem, 2016).

Legend:
[1] = test system: Rattus norvegicus; experiment: Antiarthritic activity in po dosed complete Freund's adjuvant-induced Lewis rat arthritis model assessed as inhibition of paw inflammation administered as qd for 21 days started from day of immunization; assay type: functional, organism-based
[2] = test system: Mus musculus; experiment: Induction of delay in disease onset in po dosed C57BL/6 mouse experimental autoimmune encephalomyelitis model of multiple sclerosis administered as qd for 24 days started from day of immunization measured 3 times per week of compound dosing; assay type: functional, organism-based
[3] = Mean residence time in cynomolgus monkey at 2 mg/kg, iv; assay type: ADME, organism-based, Macaca fascicularis; conditions: in vivo
[4] = test system: Canis familiaris; experiment: Ratio of Cmax to Cmin in dog at 1 mg/kg, po; assay type: ADME, organism-based, Canis lupus familiaris; conditions: in vivo
[5] = AUC in cynomolgus monkey at 5 mg/kg, po; assay type: ADME, organism-based, Macaca fascicularis; conditions: in vivo
[6] = molecular target: Sphingosine 1-phosphate receptor 1 (Homo sapiens, UniProt P21453); experiment: Induction of internalization of C-terminal GFP-fused human S1P1 receptor expressed in CHO […] at 4.6 nM after 50 mins relative to control; assay type: cell-based
Sequence of Sphingosine 1-phosphate receptor 1 (P21453 whole entry, the tested form may be a part): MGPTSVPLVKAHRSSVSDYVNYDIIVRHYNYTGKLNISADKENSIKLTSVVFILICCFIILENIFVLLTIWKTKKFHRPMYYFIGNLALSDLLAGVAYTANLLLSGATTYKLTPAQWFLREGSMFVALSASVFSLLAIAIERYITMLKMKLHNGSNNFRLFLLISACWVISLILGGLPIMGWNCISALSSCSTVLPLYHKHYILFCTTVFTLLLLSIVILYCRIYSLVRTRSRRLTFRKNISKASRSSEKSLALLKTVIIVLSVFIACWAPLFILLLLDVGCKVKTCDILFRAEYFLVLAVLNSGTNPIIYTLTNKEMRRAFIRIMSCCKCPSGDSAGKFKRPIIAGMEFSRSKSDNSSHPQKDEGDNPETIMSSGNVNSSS

[7] = Volume of distribution at steady state in cynomolgus monkey at 2 mg/kg, iv; assay type: ADME, organism-based, Macaca fascicularis; conditions: in vivo, read-out: Vdss
[8] = Plasma protein binding in dog; assay type: ADME, cell-free, Canis lupus familiaris; conditions: read-out: PPB
[9] = Dissociation constant, pKa of the compound; assay type: physicochemical
[10] = Half life in dog at 1 mg/kg, iv; assay type: ADME, organism-based, Canis lupus familiaris; conditions: in vivo
[11] = test system: Mus musculus; experiment: AUC in mouse at 10 mg/kg, po; assay type: ADME, organism-based; conditions: in vivo

In the case of `O=C(O)C1CN(Cc2ccc(-c3noc(-c4onc(-c5ccccc5)c4C(F)(F)F)n3)cc2)C1`, the inhibition [1] is reported as “Dose-dependent effect”, the Activity [2] is reported as “Dose-dependent effect” and the MRT [3] is reported as 2.2 h. The Ratio [4] was 9, the AUC [5] was 25 µM·h and the Activity [6] was greater than 90%. It also gave a Vd [7] of 0.6 L/kg, a fraction unbound [8] of 0.01 and a pKa [9] of 3.7. The half-life [10] was 7.4 h and the AUC [11] was 250 µM·h.
